Assays:
human Flt-3 = target: T1, human Flt-3 (Homo sapiens, UniProt P36888); test: Flt3 kinase inhibition, GST-Flt-3, 33P incorporation into poly(Glu,Tyr); assay type: biochemical; conditions: Table 5; read-out: Flt-3, IC50 class
T1 construct: expressing the amino acid region amino acids 563-993 of the cytoplasmic kinase domain of human Flt-3; made in house; host or cells: Sf9 (baculovirus)
T1 sequence (P36888 563-993): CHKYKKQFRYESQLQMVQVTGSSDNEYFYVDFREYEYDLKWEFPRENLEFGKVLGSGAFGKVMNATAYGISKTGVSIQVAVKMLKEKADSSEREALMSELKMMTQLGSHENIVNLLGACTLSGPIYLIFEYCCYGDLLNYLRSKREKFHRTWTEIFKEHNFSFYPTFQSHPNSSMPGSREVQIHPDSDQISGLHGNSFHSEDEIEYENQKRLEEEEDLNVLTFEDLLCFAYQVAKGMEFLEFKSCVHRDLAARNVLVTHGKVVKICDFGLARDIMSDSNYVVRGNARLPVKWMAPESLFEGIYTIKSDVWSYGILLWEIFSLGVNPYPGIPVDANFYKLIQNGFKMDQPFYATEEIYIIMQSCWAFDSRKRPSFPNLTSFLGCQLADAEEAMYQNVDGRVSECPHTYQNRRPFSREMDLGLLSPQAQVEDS
Procedure: (§1) The compounds to be tested are then diluted in culture medium (without FCS, with 0.1% bovine serum albumin) and added to the cells. (Controls comprise medium without test compounds). After two hours' incubation at 37° C., recombinant VEGF is added; the final VEGF concentration is 20 ng/ml). After a further five minutes incubation at 37° C., the cells are washed twice with ice-cold PBS (phosphate-buffered saline) and immediately lysed in 100 μl lysis buffer per well. The lysates are then centrifuged to remove the cell nuclei, and the protein concentrations of the supernatants are determined using a commercial protein assay (BIORAD). The lysates can then either be immediately used or, if necessary, stored at −20° C. A sandwich ELISA is carried out to measure the VEGF-R2 phosphorylation: a monoclonal antibody to VEGF-R2 (for example Mab 1495.12.14; ProQinase, Freiburg, Germany) is immobilized on black ELISA plates (OptiPlate™ HTRF-96 from Packard). The plates are then washed and the remaining free protein-binding sites are saturated with 3% TopBlock® (Juro, Cat. # TB232010) in phosphate buffered saline with Tween 20® (polyoxyethylen(20)-sorbitane monolaurate, ICI/Uniquema) (PBST). The cell lysates (20 μg protein per well) are then incubated in these plates overnight at 4° C. together with an antiphosphotyrosine antibody coupled with alkaline phosphatase (PY20:AP from Zymed). […] The luminescence is measured in a Packard Top Count Microplate Scintillation Counter. The difference between the signal of the positive control (stimulated with VEGF) and that of the negative control (not stimulated with VEGF) corresponds to VEGF-induced VEGF-R2 phosphorylation (=100%). The activity of the tested substances is calculated as percent inhibition of VEGF-induced VEGF-R2 phosphorylation, wherein the concentration of substance that induces half the maximum inhibition is defined as the IC50 (inhibitory dose for 50% inhibition). […] Flt3 kinase inhibition is determined as follows: The baculovirus donor vector pFbacG01 (GIBCO) is used to generate a recombinant baculovirus expressing the amino acid region amino acids 563-993 of the cytoplasmic kinase domain of human Flt-3. The coding sequence for the cytoplasmic domain of Flt-3 is amplified by PCR from human c-DNA libraries (Clontech). The amplified DNA fragments and the pFbacG01 vector are made compatible for ligation by digestion with BamH1 and HindIII. Ligation of these DNA fragments results in the baculovirus donor plasmid Flt-3(1.1). The production of the viruses, the expression of proteins in Sf9 cells and the purification of the GST-fused proteins are performed as follows: Production of virus: Transfer vector (pFbacG01-Flt-3) containing the Flt-3 kinase domain is transfected into the DH10Bac cell line (GIBCO) and the transfected cells are plated on selective agar plates. Colonies without insertion of the fusion sequence into the viral genome (carried by the bacteria) are blue. Single white colonies are picked and viral DNA (bacmid) is isolated from the bacteria by standard plasmid purification procedures. Sf9 or Sf21 cells (American Type Culture Collection) are then transfected in flasks with the viral DNA using Cellfectin reagent. Determination of small scale protein expression in Sf9 cells: Virus containing media is collected from the transfected cell culture and used for infection to increase its titre. Virus containing media obtained after two rounds of infection is used for large-scale protein expression. For large-scale protein expression 100 cm^2 round tissue culture plates are seeded with 5×10^7 cells/plate and infected with 1 mL of virus-containing media (approx. 5 MOIs). After 3 days the cells are scraped off the plate and centrifuged at 500 rpm for 5 min. Cell pellets from 10-20, 100 cm^2 plates, are resuspended in 50 mL of ice-cold lysis buffer (25 mMTris-HCl, pH 7.5, 2 mM EDTA, 1% NP-40, 1 mM DTT, 1 mM PMSF). The cells are stirred on ice for 15 min and then centrifuged at 5000 rpms for 20 min. […]

[1] = target: T2, human VEGF-R2 receptor (KDR) (Homo sapiens, UniProt P35968); test: VEGF-induced KDR autophosphorylation in transfected CHO cells, sandwich ELISA; assay type: cell-based; conditions: Table 5; read-out: KDR, IC50 class
T2 construct: expressed in transfected cells; host or cells: CHO cells
T2 sequence (P35968 20-1356): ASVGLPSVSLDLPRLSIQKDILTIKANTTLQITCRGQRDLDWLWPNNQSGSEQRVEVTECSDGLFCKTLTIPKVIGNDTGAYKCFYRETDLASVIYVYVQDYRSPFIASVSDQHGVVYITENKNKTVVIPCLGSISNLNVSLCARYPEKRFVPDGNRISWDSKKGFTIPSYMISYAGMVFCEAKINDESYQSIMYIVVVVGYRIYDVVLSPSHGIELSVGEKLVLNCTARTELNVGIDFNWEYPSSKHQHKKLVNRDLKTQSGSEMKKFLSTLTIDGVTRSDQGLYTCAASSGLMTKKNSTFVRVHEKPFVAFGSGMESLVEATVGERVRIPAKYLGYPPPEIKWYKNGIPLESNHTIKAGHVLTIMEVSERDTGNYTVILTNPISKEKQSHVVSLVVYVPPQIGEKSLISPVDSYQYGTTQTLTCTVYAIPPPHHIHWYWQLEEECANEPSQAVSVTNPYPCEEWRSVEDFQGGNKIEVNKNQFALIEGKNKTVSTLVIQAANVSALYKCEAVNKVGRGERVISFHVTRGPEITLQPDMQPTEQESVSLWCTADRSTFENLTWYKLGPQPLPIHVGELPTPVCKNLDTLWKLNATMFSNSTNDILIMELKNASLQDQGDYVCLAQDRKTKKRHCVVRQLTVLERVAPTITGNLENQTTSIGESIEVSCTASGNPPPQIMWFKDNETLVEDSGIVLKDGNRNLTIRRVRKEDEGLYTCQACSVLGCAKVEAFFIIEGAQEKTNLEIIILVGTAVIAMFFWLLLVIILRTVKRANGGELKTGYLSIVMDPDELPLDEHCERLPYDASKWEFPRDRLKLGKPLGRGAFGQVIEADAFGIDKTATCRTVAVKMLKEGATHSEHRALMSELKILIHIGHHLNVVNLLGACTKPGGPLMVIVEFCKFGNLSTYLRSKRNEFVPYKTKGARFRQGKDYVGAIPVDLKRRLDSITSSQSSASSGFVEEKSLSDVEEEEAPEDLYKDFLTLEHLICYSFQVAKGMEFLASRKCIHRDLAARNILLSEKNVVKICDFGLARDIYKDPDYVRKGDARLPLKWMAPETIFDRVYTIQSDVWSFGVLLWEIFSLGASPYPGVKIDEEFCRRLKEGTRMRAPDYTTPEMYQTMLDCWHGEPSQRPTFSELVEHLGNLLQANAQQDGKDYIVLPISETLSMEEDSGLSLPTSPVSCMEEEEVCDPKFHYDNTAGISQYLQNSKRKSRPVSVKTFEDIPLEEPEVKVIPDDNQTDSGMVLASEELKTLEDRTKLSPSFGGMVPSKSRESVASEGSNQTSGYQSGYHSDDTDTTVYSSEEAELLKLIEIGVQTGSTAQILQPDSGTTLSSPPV
Procedure: as §1

c-Src kinase = c-Src kinase (Homo sapiens, UniProt P12931); test: c-Src kinase inhibition; assay type: biochemical; conditions: Table 5; read-out: c-scr, IC50 class
Chain of c-Src kinase (P12931 whole entry): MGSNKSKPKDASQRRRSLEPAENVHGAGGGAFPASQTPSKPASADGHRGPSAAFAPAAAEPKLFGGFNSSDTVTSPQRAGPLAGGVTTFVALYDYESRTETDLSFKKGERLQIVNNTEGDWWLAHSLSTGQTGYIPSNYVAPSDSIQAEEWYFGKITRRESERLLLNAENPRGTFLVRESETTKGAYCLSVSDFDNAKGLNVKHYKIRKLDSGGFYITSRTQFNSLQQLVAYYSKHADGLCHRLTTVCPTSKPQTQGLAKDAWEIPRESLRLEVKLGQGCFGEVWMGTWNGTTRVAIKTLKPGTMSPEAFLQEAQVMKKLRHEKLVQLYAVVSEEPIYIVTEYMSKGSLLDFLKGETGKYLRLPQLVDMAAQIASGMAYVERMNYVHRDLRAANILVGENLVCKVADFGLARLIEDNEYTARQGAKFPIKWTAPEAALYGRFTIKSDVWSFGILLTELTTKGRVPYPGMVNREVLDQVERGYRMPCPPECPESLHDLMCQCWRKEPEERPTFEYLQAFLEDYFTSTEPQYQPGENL
Text: An appropriate assay is described in Andrejauskas-Buchdunger et al., Cancer Res. 52, 5353-8 (1992).

Row | SMILES | IC50 (human Flt-3) | IC50 [1] | IC50 (c-Src kinase)
1 | Cc1nc2c(-c3cccc(N4CCN(CCO)CC4)c3)cnn2c(N)c1-c1cccc(Cl)c1 [Example 90, 2-(4-{3-[7-Amino-6-(3-chloro-phenyl)-5-methyl-pyrazolo[1,5-a]pyrimidin-3-yl]-phenyl}-piperazin-1-yl)-ethanol] | > 10 µM | 1 to 10 µM | < 1 µM
2 | CN1CCN(c2cccc(-c3cnn4c(N)c(Cc5ccccc5)cnc34)c2)CC1 [Example 91, 6-Benzyl-3-[3-(4-methyl-piperazin-1-yl)-phenyl]-pyrazolo[1,5-a]pyrimidin-7-ylamine] | > 10 µM | 1 to 10 µM | > 10 µM
3 | COc1ccc(-c2cnn3c(N)c(-c4cccc(Cl)c4)c(C)nc23)cc1OC [Example 93, 6-(3-Chloro-phenyl)-3-(3,4-dimethoxy-phenyl)-5-methyl-pyrazolo[1,5-a]pyrimidin-7-ylamine] | > 10 µM | > 10 µM | < 1 µM
4 | COc1ccc(-c2cnn3c(N)c(-c4ccc(F)c(Cl)c4)c(C)nc23)cc1OC [Example 94, 6-(3-Chloro-4-fluoro-phenyl)-3-(3,4-dimethoxy-phenyl)-5-methyl-pyrazolo[1,5-a]pyrimidin-7-ylamine] | > 10 µM | > 10 µM | < 1 µM
5 | COc1ccc(-c2cnn3c(N)c(-c4ccc(F)c(Cl)c4)c(C)nc23)cc1 [Example 95, 6-(3-Chloro-4-fluoro-phenyl)-3-(4-methoxy-phenyl)-5-methyl-pyrazolo[1,5-a]pyrimidin-7-ylamine] | > 10 µM | > 10 µM | 1 to 10 µM
6 | COc1ccc(-c2cnn3c(N)c(-c4ccc(F)cc4)c(C)nc23)cc1 [Example 96, 6-(4-Fluoro-phenyl)-3-(4-methoxy-phenyl)-5-methyl-pyrazolo[1,5-a]pyrimidin-7-ylamine] | > 10 µM | > 10 µM | < 1 µM
7 | Cc1nc2c(-c3cccc(N4CCN(CCO)CC4)c3)cnn2c(N)c1-c1ccc(F)cc1 [Example 97, 2-(4-{3-[7-Amino-6-(4-fluoro-phenyl)-5-methyl-pyrazolo[1,5-a]pyrimidin-3-yl]-phenyl}-piperazin-1-yl)-ethanol] | > 10 µM | 1 to 10 µM | < 1 µM
8 | Cc1nc2c(-c3cccc(N4CCN(C)CC4)c3)cnn2c(N)c1-c1ccc(F)c(F)c1 [Example 98, 6-(3,4-Difluoro-phenyl)-5-methyl-3-[3-(4-methyl-piperazin-1-yl)-phenyl]-pyrazolo[1,5-a]pyrimidin-7-ylamine] | > 10 µM | > 10 µM | < 1 µM
9 | COc1ccc(-c2cnn3c(N)c(-c4ccc(F)c(F)c4)c(C)nc23)cc1OC [Example 99, 6-(3,4-Difluoro-phenyl)-3-(3,4-dimethoxy-phenyl)-5-methyl-pyrazolo[1,5-a]pyrimidin-7-ylamine] | > 10 µM | > 10 µM | < 1 µM
10 | Cc1nc2c(-c3cccc(N4CCN(CCO)CC4)c3)cnn2c(N)c1-c1ccc(F)c(Cl)c1 [Example 100, 2-(4-{3-[7-Amino-6-(3-chloro-4-fluoro-phenyl)-5-methyl-pyrazolo[1,5-a]pyrimidin-3-yl]-phenyl}-piperazin-1-yl)-ethanol] | > 10 µM | 1 to 10 µM | < 1 µM
11 | Cc1nc2c(-c3cccc(N4CCN(CCO)CC4)c3)cnn2c(N)c1-c1ccc(F)c(F)c1 [Example 101, 2-(4-{3-[7-Amino-6-(3,4-difluoro-phenyl)-5-methyl-pyrazolo[1,5-a]pyrimidin-3-yl]-phenyl}-piperazin-1-yl)-ethanol] | > 10 µM | 1 to 10 µM | < 1 µM
12 | Cc1nc2c(-c3cccc(N4CCC(N5CCCC5)CC4)c3)cnn2c(N)c1-c1cccc(Cl)c1 [Example 102, 6-(3-Chloro-phenyl)-5-methyl-3-[3-(4-pyrrolidin-1-yl-piperidin-1-yl)-phenyl]-pyrazolo[1,5-a]pyrimidin-7-ylamine] | > 10 µM | > 10 µM | < 1 µM
13 | Cc1nc2c(-c3cccc(N4CCC(N5CCCC5)CC4)c3)cnn2c(N)c1-c1ccc(F)cc1 [Example 103, 6-(4-Fluoro-phenyl)-5-methyl-3-[3-(4-pyrrolidin-1-yl-piperidin-1-yl)-phenyl]-pyrazolo[1,5-a]pyrimidin-7-ylamine] | > 10 µM | > 10 µM | < 1 µM
14 | Cc1nc2c(-c3cccc(N4CC[N+](C)([O-])CC4)c3)cnn2c(N)c1-c1ccc(F)cc1 [Example 106, 6-(4-Fluoro-phenyl)-5-methyl-3-[3-(4-methyl-4-oxy-piperazin-1-yl)-phenyl]-pyrazolo[1,5-a]pyrimidin-7-ylamine] | > 10 µM | > 10 µM | < 1 µM
15 | Cc1nc2c(-c3cccc([N+]4([O-])CC[N+](C)([O-])CC4)c3)cnn2c(N)c1-c1ccc(F)cc1 (stereo not drawn) [Example 107, 6-(4-Fluoro-phenyl)-5-methyl-3-[3-(4-methyl-1,4-dioxy-piperazin-1-yl)-phenyl]-pyrazolo[1,5-a]pyrimidin-7-ylamine] | > 10 µM | > 10 µM | < 1 µM

Source: patent US20090099167A1, “Organic compounds” (Novartis Institutes for Biomedical Research, priority 2004, published 2009)
